Results: the NIST ThermoML archive (doi:10.1021/je3003404)

Assay: mn = molality of the nth substance listed, in mol/kg
Conditions: 101 kPa, Liquid; for speed of sound: Sing-around technique in a fixed-path interferometer; for viscosity: Capillary tube (Ostwald / Ubbelohde) method; for electrical conductivity: Dip type conductivity cell; for mass density: Pycnometric method

CCCCCCCCCCCCCCCC[N+](C)(C)CC.[Br-] [ethylhexadecyldimethylammonium bromide] + O
Conditions	electrical conductivity [S/m]	mass density [kg/m3]	speed of sound [m/s]	viscosity [mPa·s]
308.15 K, m1 = 0.0016	–	–	1520.2	–
308.15 K, m1 = 0.002	–	–	1520	–
308.15 K, m1 = 0.0025	–	–	1520	–
308.15 K, m1 = 0.003	–	–	1519.5	–
313.15 K, m1 = 0.0002	0.00364	990.61	1528.8	0.641
313.15 K, m1 = 0.0005	0.00952	990.63	1529.9	0.6432
313.15 K, m1 = 0.0008	0.0153	990.67	1530.4	0.6469
313.15 K, m1 = 0.0012	0.0183	990.68	1531.2	0.6502
313.15 K, m1 = 0.0016	0.0187	990.69	1531.1	0.652
313.15 K, m1 = 0.002	0.0209	990.7	1530.9	0.6539
313.15 K, m1 = 0.0025	0.0224	990.72	1530.7	0.6558
313.15 K, m1 = 0.003	0.0243	990.73	1530.5	0.6576
318.15 K, m1 = 0.0002	0.00396	988.67	1537.1	0.582
318.15 K, m1 = 0.0005	0.0107	988.68	1538.2	0.5832
318.15 K, m1 = 0.0008	0.0171	988.7	1538.5	0.587
318.15 K, m1 = 0.0012	0.021	988.73	1539.4	0.5903
318.15 K, m1 = 0.0016	0.023	988.74	1539.2	0.5922
318.15 K, m1 = 0.002	0.025	988.75	1539	0.5935
318.15 K, m1 = 0.0025	0.0265	988.76	1538.8	0.5954
318.15 K, m1 = 0.003	0.028	988.78	1538.6	0.5971
323.15 K, m1 = 0.0002	–	986.71	1541.7	0.5274
323.15 K, m1 = 0.0005	–	986.72	1542.8	0.5298
323.15 K, m1 = 0.0008	–	986.74	1543.5	0.5334
323.15 K, m1 = 0.0012	–	986.76	1544.5	0.5357
323.15 K, m1 = 0.0016	–	986.78	1544.3	0.5384
323.15 K, m1 = 0.002	–	986.79	1544.1	0.5398
323.15 K, m1 = 0.0025	–	986.8	1544	0.5413
323.15 K, m1 = 0.003	–	986.81	1543.8	0.5426
